Key:
[1] = target: T1, gp120/DC-SIGN-Fc (Homo sapiens, UniProt Q9NNX6); test: gp120/Fc-DC-SIGN competition ELISA; assay type: binding
T1 construct: fused on or other part: Human IgG Fc fused on as a dimerising and detection handle (detected with anti-human IgG, Fc-gamma-specific antibody)
T1 sequence (Q9NNX6 250-404 limits assumed): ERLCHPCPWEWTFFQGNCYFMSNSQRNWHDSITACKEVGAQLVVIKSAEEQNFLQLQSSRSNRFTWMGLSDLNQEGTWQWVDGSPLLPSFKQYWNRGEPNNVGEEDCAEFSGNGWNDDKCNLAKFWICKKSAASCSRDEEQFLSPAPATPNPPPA
Method: It was then determined whether oligomannose dendrons are able to interfere with the binding between gp120 and DC-SIGN, which is likely to be a key step for dendritic cell-mediated CD4 T cell HIV infection. Gp120/Fc-DC-SIGN ELISA was performed, in a similar setting as gp120/2G12 ELISA, to evaluate the inhibition activity of glycodendrons 14 and 17.
Competition ELISA for Fc-DC-SIGN. DC-SIGN competitions were done with 1.5 μg/ml Fc-DC-SIGN as described above with a few modifications since DC-SIGN is a C-type lectin that requires Ca^2+ for binding. A Tris (10 mM, pH7.8) buffer containing NaCl (150 mM), i.e., TBS, replaced PBS in the abovementioned buffers used for coating, blocking and washing. After the initial wash step, CaCl2 (10 mM) was included in the blocking solution and all subsequent incubation and wash buffers until substrate addition. DC-SIGN-Fc binding was detected with an alkaline phosphatase-conjugated goat anti-human IgG, Fcγ-specific, Ab (Jackson ImmunoResearch Laboratories, Inc.) diluted 1:1000.

[2] = target: 2G12 complex; test: KD,surf of 2G12 complex on glycan-printed normal-NHS-density slide; assay type: binding; conditions: immobilized on normal-NHS-density slide; saturated value
Method: To further test its multivalent efficacy, 17 was immobilized onto a normal-NHS-density slide (FIG. 3d) at varying printing concentrations.
Second generation Man9 dendron 17 on normal NHS density slide: Similar procedure as for normal density Man4 slide was used. Derivative of 17 with a linker connecting free amine was used for printing. The printing concentrations are 100, 80, 60, 40, 20, 10, 8, 6, 4, 2, 1, 0.8, 0.6, 0.4, 0.2, 0.1, 0.08, 0.06, 0.04, and 0.02 μM. The KD,surf of 2G12 complex was obtained (see Table 4) as previously described.
Determination of KD,surf of glycodendron 17. The procedure is the same as that disclosed in Liang et al., “Quantitative analysis of carbohydrate-protein interactions using glycan microarrays: determination of surface and solution dissociation constants.” J Am Chem Soc 129:11177-11184 (2007), which is hereby incorporated by reference as if fully disclosed herein.

Question: What does the source list for O=C[C@@H](O)[C@@H](O)[C@H](O)[C@H](O)CO [D-Mannose, reference compound]?
Answer: IC50 [1]: 8.5 mM; inhibition activity range ([1]; gp120/Fc-DC-SIGN ELISA): millimolar range

Question: How did the Kd [2] turn out when Man9 [Compound 2] was run?
Answer: Its Kd is 0.00083 mM.

— patent US20090232831A1, “METHODS AND COMPOSITIONS FOR THE TREATMENT OR PREVENTION OF HUMAN IMMUNODEFICIENCY VIRUS INFECTION” (priority 2008, published 2009)
